Laboratory results as given in patent US12435087B2, “Modulators of DCN-1 and methods of use thereof” (Cellarity, Inc., priority 2023, dated 2025).
Read-outs that look alike come from different tables or passages of the source.

Biological target: DCN1 (DCUND1) protein PONY domain (Homo sapiens (Human), UniProt Q96GG9)
Experiment: TR-FRET assay (binding to DCN-1, displacement of FAM-labeled probe)
Procedure, shortened: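 Compounds read at 1, 5 and 24 h, 0.1% final DMSO, by TR-FRET between terbium-streptavidin on biotinylated DCN1 PONY domain (E. coli) and a FAM-tagged non-covalent inhibitor probe. Two setups used, 5 nM protein with 20 nM labelled probe, or 0.31 nM protein with 100 nM labelled plus 800 nM unlabelled probe; buffer had TritonX and 200 mM NaCl. % activity relative to high (with probe) and low (without probe) controls.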

[1] = 24 hr after treatment with compound, read-out: TR FRET IC50 24 hr
[2] = TR FRET IC50 1 hr (nM), 1 hr after treatment with compound
[3] = read-out: TR FRET IC50 1 hr, 1 hr after treatment with compound

Sequence of DCN1 (DCUND1) protein PONY domain (Q96GG9 60-248): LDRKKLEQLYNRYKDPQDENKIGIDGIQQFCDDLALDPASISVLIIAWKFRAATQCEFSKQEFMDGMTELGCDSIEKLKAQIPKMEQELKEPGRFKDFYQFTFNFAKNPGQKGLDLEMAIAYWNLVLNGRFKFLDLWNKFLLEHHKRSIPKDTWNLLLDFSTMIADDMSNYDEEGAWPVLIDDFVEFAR

| SMILES | IC50 [1] [nM] | IC50 [2] [nM] | IC50 [3] [nM] |
| --- | --- | --- | --- |
| C/C=C(\CN(C)C1COC1)C(=O)NCc1cccc([C@@H]2c3cnn(-c4ccccc4)c3N(CC)C(=O)[C@H]2NC(=O)c2nccc(C(F)(F)F)n2)c1 [Compound I-322] | ≤ 200 | 1000 to 3000 | – |
| CCN1C(=O)[C@@H](NC(=O)c2ccn(C(F)(F)F)n2)[C@H](c2cccc(NC(=O)C3=CCN(C)C3)c2)c2c(C)nn(-c3ccccc3)c21 [Compound I-323] | ≤ 200 | 200 to 1000 | – |
| C=C(CC(=O)OC)C(=O)NCc1cccc([C@@H]2c3cnn(-c4ccccc4)c3N(CC)C(=O)[C@H]2NC(=O)c2cccc(C(F)(F)F)c2)c1 [Compound I-50] | ≤ 200 | 1000 to 3000 | – |
| CCN1C(=O)[C@H](NC(=O)c2cccc(C(F)(F)F)c2)[C@@H](c2cccc(NC(=O)C34CC3C4)c2)c2c(C)nn(-c3ccccc3)c21 (mixture of isomers) [Compound I-80] | 1000 to 3000 | 1000 to 3000 | – |
| CCN1C(=O)[C@@H](NC(=O)c2cccc(C(F)(F)F)c2)[C@H](c2cncc(NC(=O)/C=C/CN(C)C)c2)c2cnn(-c3ccccc3)c21 [Compound I-320] | 200 to 1000 | 1000 to 3000 | – |
| CCN1C(=O)[C@H](NC(=O)c2cccc(C(F)(F)F)c2)[C@@H](c2cccc(CNC(=O)C3=CCCN(C)C3)c2)c2cnn(-c3ccccc3)c21 [Compound I-106] | 1000 to 3000 | 1000 to 3000 | – |
| CCN1C(=O)[C@@H](NC(=O)c2cccc(C(F)(F)F)c2)[C@@H](c2cccc(NC(=O)C3=CCN(C)C3)c2)c2c(C)nn(-c3ccccc3)c21 (racemic) [Compound I-148] | 200 to 1000 | 1000 to 3000 | – |
| C=C(CN1CCOCC1)C(=O)Nc1cccc([C@H]2c3c(C)nn(-c4ccccc4)c3N(CCO)C(=O)[C@@H]2NC(=O)c2cccc(C(F)(F)F)c2)c1 (racemic) [Compound I-147, rac-N-((4R,5S)-7-(2-hydroxyethyl)-3-methyl-4-(3-(2-(morpholinomethyl)acrylamido)phenyl)-6-oxo-1-phenyl-4,5,6,7-tetrahydro-1H-pyrazolo[3,4-b]pyridin-5-yl)-3-(trifluoromethyl)benzamide] | ≤ 200 | ≤ 200 | – |
| CCN1C(=O)[C@@H](NC(=O)c2cccc(C(F)(F)F)c2)[C@H](c2cccc(CNC/C=C/C(=O)N(C)C)c2)c2cnn(-c3ccccc3)c21 [Compound I-372] | 200 to 1000 | 1000 to 3000 | – |
| CCN1C(=O)[C@@H](NC(=O)c2cccc(C(F)(F)F)c2)[C@@H](c2cc(F)cc(NC(=O)/C=C/CN(C)C)c2)c2cnn(-c3ccccc3)c21 (racemic) [Compound I-85] | 1000 to 3000 | 1000 to 3000 | – |
| C/C=C(\CN1CC2(COC2)C1)C(=O)N(C)Cc1cccc([C@@H]2c3cnn(-c4ccccc4)c3N(CC)C(=O)[C@H]2NC(=O)c2ccn(C(F)(F)F)n2)c1 [Compound I-321] | 1000 to 3000 | 1000 to 3000 | – |
| C=C(CN1CC2CC1CO2)C(=O)NCc1cccc([C@@H]2c3cnn(-c4ccccc4)c3N(CC)C(=O)[C@H]2NC(=O)c2cccc(C(F)(F)F)c2)c1 (some centres unmarked) [Compound I-7] | ≤ 200 | – | ≤ 200 |
| C=CC(=O)NCc1cccc([C@@H]2c3cnn(-c4ccccc4)c3N(CC)C(=O)[C@H]2NC(=O)c2cccc(C(F)(F)F)c2)c1 (racemic) [Compound I-111] | 1000 to 3000 | 1000 to 3000 | – |
| CCN1C(=O)[C@H](NC(=O)c2cccc(C(F)(F)F)c2)[C@@H](c2cccc(N(C)C(=O)/C=C/CN(C)C)c2)c2cnn(-c3ccccc3)c21 (racemic) [Compound I-39] | 1000 to 3000 | 1000 to 3000 | – |
| C/C=C(\CN1CCN(C2COC2)CC1)C(=O)N(C)Cc1cccc([C@@H]2c3cnn(-c4ccccc4)c3N(CC)C(=O)[C@H]2NC(=O)c2ccn(C(F)(F)F)n2)c1 [Compound I-237, N-((4R,5S)-7-ethyl-4-(3-(((E)-N-methyl-2-((4-(oxetan-3-yl)piperazin-1-yl)methyl)but-2-enamido)methyl)phenyl)-6-oxo-1-phenyl-4,5,6,7-tetrahydro-1H-pyrazolo[3,4-b]pyridin-5-yl)-1-(trifluoromethyl)-1H-pyrazole-3-carboxamide] | 200 to 1000 | 1000 to 3000 | – |
| C/C=C(/C)S(=O)(=O)Nc1cccc([C@H]2c3c(C)nn(-c4ccccc4)c3N(CC)C(=O)[C@@H]2NC(=O)c2cccc(C(F)(F)F)c2)c1 (racemic) [Compound I-127] | 1000 to 3000 | 1000 to 3000 | – |
| CCN1C(=O)[C@@H](NC(=O)c2nccc(C(F)(F)F)n2)[C@H](c2cccc(C(=O)N3CC(F)(F)C[C@H]3C#N)c2)c2cnn(-c3ccccc3)c21 (mixture of isomers) [Compound I-379, N-(rac-(4R,5S)-4-(3-((S)-2-cyano-4,4-difluoropyrrolidine-1-carbonyl)phenyl)-7-ethyl-6-oxo-1-phenyl-4,5,6,7-tetrahydro-1H-pyrazolo[3,4-b]pyridin-5-yl)-4-(trifluoromethyl)pyrimidine-2-carboxamide] | 1000 to 3000 | 1000 to 3000 | – |
| CCN1C(=O)[C@@H](NC(=O)c2nccc(C(F)(F)F)n2)[C@H](c2ccccc2/C=C\C#N)c2cnn(-c3ccccc3)c21 (racemic) [Compound I-260, rac-N-((4R,5S)-4-(2-((Z)-2-cyanovinyl)phenyl)-7-ethyl-6-oxo-1-phenyl-4,5,6,7-tetrahydro-1H-pyrazolo[3,4-b]pyridin-5-yl)-4-(trifluoromethyl)pyrimidine-2-carboxamide] | 1000 to 3000 | 1000 to 3000 | – |
| CCN1C(=O)[C@@H](NC(=O)c2nccc(C(F)(F)F)n2)[C@H](c2cccc(NC(=O)/C=C/CN(C)C)n2)c2cnn(-c3ccccc3)c21 (racemic) [Compound I-265] | 200 to 1000 | 200 to 1000 | – |
| C=C(CN(C)C1COC1)C(=O)N(C)Cc1cccc([C@@H]2c3cnn(-c4ccccc4)c3N(CC)C(=O)[C@H]2NC(=O)c2nccc(C(F)(F)F)n2)c1 [Compound I-254] | – | 1000 to 3000 | – |
| C=C(CN1CC2CC1CO2)C(=O)NCc1cccc([C@@H]2c3c(C)nn(-c4ccccc4)c3N(CC)C(=O)[C@H]2NC(=O)c2cccc(C(F)(F)F)c2)c1 (some centres unmarked) [Compound I-236] | ≤ 200 | – | ≤ 200 |
| C=C(CN(C)C1COC1)C(=O)NCc1cccc([C@H]2c3cnn(-c4ccccc4)c3N(CC)C(=O)[C@@H]2NC(=O)c2cccc(C(F)(F)F)c2)c1 [Compound I-154] | 200 to 1000 | 1000 to 3000 | – |
| C=C(C(=O)NCc1cccc([C@@H]2c3cnn(-c4ccccc4)c3N(CC)C(=O)[C@H]2NC(=O)c2csc(C(F)(F)F)n2)c1)C(C(C)C)N(C)C1COC1 (some centres unmarked) [Compound I-352] | ≤ 200 | – | ≤ 200 |
| C=C(CN1C[C@@H]2C[C@H]1CO2)C(=O)NCc1cccc([C@@H]2c3cnn(-c4ccccc4)c3N(CC)C(=O)[C@H]2NC(=O)c2nccc(C(F)(F)F)n2)c1 (mixture of isomers) [Compound I-160] | ≤ 200 | – | ≤ 200 |
| C=C(CN1CC2CCC(C1)O2)C(=O)NCc1cccc([C@@H]2c3cnn(-c4ccccc4)c3N(CC)C(=O)[C@H]2NC(=O)c2nccc(C(F)(F)F)n2)c1 [Compound I-292] | ≤ 200 | – | ≤ 200 |
| C=C(CC(=O)NCc1cccc([C@@H]2c3cnn(-c4ccccc4)c3N(CC)C(=O)[C@H]2NC(=O)c2cccc(C(F)(F)F)c2)c1)C(=O)OC [Compound I-57] | 1000 to 3000 | 1000 to 3000 | – |
| C=C(CN1CCC12COC2)C(=O)NCc1cccc([C@@H]2c3cnn(-c4ccccc4)c3N(CC)C(=O)[C@H]2NC(=O)c2cccc(C(F)(F)F)c2)c1 [Compound I-332] | ≤ 200 | – | ≤ 200 |
